From patent US8445430B2, “Cyclic carboxamide compounds and analogues thereof as of hepatitis C virus” (Achillion Pharmaceuticals, Inc., priority 2008, dated 2013) come the findings set out here.

The structures appear in SMILES notation. Some results are limits rather than exact numbers.

One assay relates to HCV replicon in Huh-7 cells. The experiment in a line: HCV replicon assay (NPT ELISA) for inhibition of HCV replication. Format: cell-based. The conditions noted are these: Hepatitis C virus, Huh-7, 72 h, HCV replicon-containing Huh-7 cells, three days incubation. How it is done: Compounds claimed herein are tested for the ability to inhibit viral replication of the Hepatitis C replicon in cultured cells in which the HCV replicon construct has been incorporated. The HCV replicon system was described by Bartenschlager, et. al (Science, 285, pp. 110-113 (1999)). The replicon system is predictive of in vivo anti-HCV activity; compounds that are active in humans uniformly evidence activity in the replicon assay.
In this assay HCV replicon containing cells are treated with different concentrations of the test compound to ascertain the ability of the test compound to suppress replication of the HCV replicon. As a positive control, HCV replicon-containing cells are treated with different concentrations of interferon alpha, a known inhibitor of HCV replication. The replicon assay system includes Neomycin Phosphotransferase (NPT) as a component of the replicon itself in order to detect the transcription of replicon gene products in the host cell. Cells in which the HCV replicon is actively replicating have high levels of NPT; the level of NPT is proportional to HCV replication. […] The NPT level of each sample is measured using a captured ELISA.
A protocol for testing compounds for the ability to inhibit viral replication of the Hepatitis C replicon cultured cells in which the replicon construct has been incorporated, follows.
The HCV replicon contains, 5′-3′, the HCV-IRES, the neomycin phosphotransferase (neo) gene, the IRES of encephalomyocarditis virus, which directs translation of HCV sequences NS3 to NS5B, and the 3′-NTR. The sequence of the HCV replicon has been deposited in GenBank (Accession no. AJ242652).
The replicon is transfected into Huh-7 cells using standard methods such as electroporation.
The equipment and materials include, but are not limited to, Huh-7 HCV replicon-containing cells, maintenance media (DMEM (Dulbecco's modified Eagle media) supplemented with 10% FBS, L-glutamine, non-essential amino acids, penicillin (100 units/ml), streptomycin (100 micrograms/ml), and 500 micrograms/ml of Geneticin (G418), screening media (DMEM supplemented with 10% FBS, L-glutamine, non-essential amino acids, penicillin (100 units/ml) and streptomycin (100 micrograms/ml)), 96 well tissue culture plates (flat bottom), 96 well plates (U bottom for drug dilution), Interferon alpha for positive control, fixation reagent (such as methanol:acetone), primary antibody (rabbit anti-NPTII), secondary antibody: Eu-N11, and enhancement solution.
HCV replicon-containing cells support high levels of viral RNA replicon replication when their density is suitable. Over-confluency causes decreased viral RNA replication. Therefore, cells must be kept growing in log phase in the presence of 500 micrograms/ml of G418. Generally, cells should be passed twice a week at 1: 4-6 dilution. Cell maintenance is conducted as follows:
HCV replicon-containing cells are examined under a microscope to ensure that cells growing well. Cells are rinsed once with PBS and 2 ml trypsin is added. The cell/trypsin mixture is incubated at 37° C. in a CO2 incubator for 3-5 minutes. After incubation 10 ml of complete media is added to stop the trypsinization reaction. Cells are blown gently, put into a 15 ml tube, and spun at 1200 rpm for 4 minutes. The trypsin/medium solution is removed. Medium (5 ml) is added and the cells are mixed carefully. The cells are counted.
The cells are then seeded onto 96-well plates at a density of 6000-7500 cells/100 microliters/well (6-7.5×10^5 cells/10 ml/plate). The plates are then incubated at 37° C. in a 5% CO2 incubator.
Cells are examined under a microscope approximated 24 hours after seeding and prior to adding drugs. If counting and dilution were performed correctly, cells are 60-70% confluent and nearly all cells should attach and spread evenly in the well.
HCV replicon-containing cells are rinsed with once PBS once; 2 mls of trypsin are then added. Cells are incubated at 37° C. in a 5% CO2 incubator for 3-5 minutes. […]
For the molecule `COc1ccc2c(O[C@@H]3C[C@H]4C(=O)N[C@]5(C(=O)NS(=O)(=O)C6CC6)C[C@H]5/C=C\CCCC(=O)N[C@@H](CC(=O)OC(C)(C)C)C(=O)N4C3)cc(-c3nc(C(C)C)cs3)nc2c1C` [Compound 16, tert-butyl 2-((2R,6S,14aR,16aS,Z)-14a-(cyclopropylsulfonylcarbamoyl)-2-(2-(4-isopropyithiazol-2-yl)-7-methoxy-8-methylquinolin-4-yloxy)-5,8,16-trioxo-1,2,3,5,6,7,8,9,10,11,13a,14,14a,15,16,16a-hexadecahydrocyclopropa[n]pyrrolo [2,1-c][1,4,7]triazacyclopentadecin-6-yl)acetate], the EC50 – broadly, the concentration needed to bring the measured effect to its halfway point – was not above 10 µM.

The assay is the same for the next values; noted with them: Hepatitis C virus, Huh-7, 72 h, HCV replicon-containing Huh-7 cells, three days incubation; read-out: EC50.
`COC(=O)C[C@@H]1NC(=O)CCC/C=C\[C@@H]2C[C@@]2(C(=O)NS(=O)(=O)C2CC2)NC(=O)[C@@H]2C[C@@H](Oc3cc(-c4ccccc4)nc4cc(OC)ccc34)CN2C1=O` [Compound 12, methyl 2-((2R,6S,14aR,16aS,Z)-14a-(cyclopropylsulfonylcarbamoyl)-2-(7-methoxy-2-phenylquinolin-4-yloxy)-5,8,16-trioxo-1,2,3,5,6,7,8,9,10,11,13a,14,14a,15,16,16a-hexadecahydrocyclopropa[n]pyrrolo[2,1-c] [1,4,7]triazacyclopentadecin-6-yl)acetate]: the 50% effective concentration (EC50) fell in the range of 1 to 10 µM.

For the molecule `CCOC(=O)[C@@]12C[C@@H]1/C=C\CCCC(=O)N[C@@H](C(C)(C)C)C(=O)N1C[C@H](Oc3cc(-c4ccccc4)nc4cc(OC)ccc34)C[C@H]1C(=O)N2` [Compound 1, (2R,6S,13aR,14aR,16aS,Z)-ethyl 6-tert-butyl-2-(7-methoxy-2-phenylquinolin-4-yloxy)-5,8,16-trioxo-1,2,3,5,6,7,8,9,10,11,13a,14,14a,15,16,16a-hexadecahydrocyclopropa[n]pyrrolo[2,1-c] [1,4,7]triazacyclopentadecine-14a-carboxylate], the EC50 was more than 10 µM.

`COc1ccc2c(O[C@@H]3C[C@H]4C(=O)N[C@]5(C(=O)NS(=O)(=O)C6CC6)C[C@H]5/C=C\CCCC(=O)N[C@@H](CC(=O)OC(C)(C)C)C(=O)N4C3)cc(-c3nc(C(C)C)cs3)nc2c1C` [Compound 16, tert-butyl 2-((2R,6S,14aR,16aS,Z)-14a-(cyclopropylsulfonylcarbamoyl)-2-(2-(4-isopropyithiazol-2-yl)-7-methoxy-8-methylquinolin-4-yloxy)-5,8,16-trioxo-1,2,3,5,6,7,8,9,10,11,13a,14,14a,15,16,16a-hexadecahydrocyclopropa[n]pyrrolo [2,1-c][1,4,7]triazacyclopentadecin-6-yl)acetate]: the EC50 is less than 1 µM.

Turning to `CCOC(=O)[C@]12C[C@H]1/C=C\CCCC(=O)N[C@@H](C(C)(C)C)C(=O)N1C[C@H](Oc3cc(-c4ccccc4)nc4cc(OC)ccc34)C[C@H]1C(=O)N2` [Compound 2, (2R,6S,13aS,14aS,16aS,Z)-ethyl 6-tert-butyl-2-(7-methoxy-2-phenylquinolin-4-yloxy)-5,8,16-trioxo-1,2,3,5,6,7,8,9,10,11,13a,14,14a,15,16,16a-hexadecahydrocyclopropa[n]pyrrolo[2,1-c] [1,4,7]triazacyclopentadecine-14a-carboxylate], the EC50 is more than 10 µM.

Regarding `COC(=O)CC1NC(=O)CCC/C=C\[C@@H]2C[C@@]2(C(=O)NS(=O)(=O)C2CC2)NC(=O)[C@@H]2C[C@@H](Oc3cc(-c4ccccc4)nc4cc(OC)ccc34)CN2C1=O` (stereo partly drawn) [Compound 13, methyl 2-((2R,14aR,16aS,Z)-14a-(cyclopropylsulfonylcarbamoyl)-2-(7-methoxy-2-phenylquinolin-4-yloxy)-5,8,16-trioxo-1,2,3,5,6,7,8,9,10,11,13a,14,14a,15,16,16a-hexadecahydrocyclopropa[n]pyrrolo[2,1-c] [1,4,7]triazacyclopentadecin-6-yl)acetate], the EC50 was in the range of 1 to 10 µM.

Regarding `COc1ccc2c(O[C@@H]3C[C@H]4C(=O)N[C@]5(C(=O)NS(=O)(=O)C6CC6)C[C@H]5/C=C\CCCC(=O)N[C@@H](CC(=O)N5CCCCC5)C(=O)N4C3)cc(-c3ccccc3)nc2c1` [Compound 15, (2R,6S,14aR,16aS,Z)-N-(cyclopropylsulfonyl)-2-(7-methoxy-2-phenylquinolin-4-yloxy)-5,8,16-trioxo-6-(2-oxo-2-(piperidin-1-yl)ethyl)-1,2,3,5,6,7,8,9,10,11,13a,14,14a,15,16,16a hexadecahydrocyclopropa[n]pyrrolo [2,1-c][1,4,7]triazacyclopentadecine-14a-carboxamide], the EC50 was less than 1 µM.
